Data reported in patent US9775902B2, “Compounds and methods for treatment of stroke” (FIBROGEN, INC, priority 2006, dated 2017).

Experiments:
Type in all cases: in vivo
[1] = system: Wistar rats, transient occlusion of the middle cerebral artery; test: Rat model of transient middle cerebral artery occlusion (tMCAO): infarct volume and edema at 48 hours
Description: The effect of compounds of the present invention on infarct volume and edema was examined in an animal model of ischemic stroke. For these studies, male Wistar rats (320 g) were subjected to transient occlusion of the middle cerebral artery. Rats were anesthetized with 3% isoflurane in oxygen. Aseptic technique was used for all procedures during these studies. The surgical site was clipped and cleaned with alcohol and surgical scrub. Each animal was placed on a warm water heating pad to maintain body temperature. A paramedian incision was made on the neck over the carotid artery. The tissue was bluntly dissected away to reveal the carotid artery and the carotid artery bifurcation. Sutures were placed around the proximal portion of the common carotid and the external carotid arteries and were then tied off. An incision was made in the common carotid, distal to the ligation and a pre-prepared filament (3-0 monofilament suture or like material) was placed in the carotid and advanced into the internal carotid artery. The filament was advanced approximately 20 millimeters past the carotid bifurcation until slight resistance was felt as it wedged inside the middle cerebral artery (MCA). Care was taken to not rupture the artery upon insertion of the filament. The filament was tied in place and the skin incision closed. At this time isoflurane was discontinued and the animals were allowed to awaken.
One hour after surgery, the success of MCA occlusion was assessed using the Bederson scale, as previously described. (See Bederson et al., (1986) Stroke, 17:1304-1308.) Sixty minutes after occlusion, the animals were re-anesthetized for reperfusion. The skin incision was reopened and the filament was carefully withdrawn from the MCA but not completely removed. Body temperature was taken every 15 minutes throughout the study to maintain normothermia. Animals that have undergone the MCA occlusion procedure may have difficulty in thermoregulation for a few hours after surgery. Animals were placed in a cooling or heating box as determined by their body temperature. Body temperature was maintained at 37.5° C.
Various compounds of the present invention were administered by oral gavage (p.o.) at reperfusion or at reperfusion and again at 24 hours after reperfusion in 0.5% CMC and 0.1% Polysorbate 80 at various doses (see Table 10 below). Forty-eight hours after MCA occlusion animals were euthanized with CO2 and their brains removed. After removal, the brain was sliced into 7 coronal sections, 2 mm thick. The sections were placed rostral side down in a petri dish and stained with 1% Triphenyl tetrazolium chloride for 20 minutes at 37° C. for determination of infarct volume. Brain sections were then digitally photographed and analyzed for changes in infarct volume and extent of edema. Infarct volumes were determined by measuring the infarcted (i.e., non-stained) areas of each brain section and multiplying this value by the section thickness. Extent of edema was determined by the net increase in volume of the ipsilateral cortex compared to that of the contralateral cortex of brain sections.

[2] = system: db/db mice, permanent occlusion of the MCA; test: pMCAO in db/db mice: infarct volume; conditions: 20 mg/kg i.v. immediately after MCA occlusion, 24 hours
Method: The effect of compounds of the present invention on infarct volume and edema associated with stroke was examined in an animal model of ischemic stroke. In these studies, mice were subjected to permanent occlusion of the middle cerebral artery. Mice were anesthetized intraperitoneally with avertin (0.5 mg/g). Mice were then immobilized in a rodent stereotaxic frame (Kopf Instruments, Tujunga Calif.) and maintained with avertin as needed. The surgical area of the head was swabbed with 70% ethanol and a lateral incision was made between the right orbit and the right ear. […] The distal course of the middle cerebral artery (MCA) was visible through the translucent skull. A small burr-hole craniotomy was performed with a micro-drill (Fine Science Tools, Foster City Calif.). The meninges/dura was removed and the MCA was coagulated by bipolar diathermy. The muscle and soft tissue were replaced and the incision closed with vet-bond adhesive (3M, St. Paul Minn.). These studies were performed in two different mouse models of pMCAO as described below.
To evaluate the effect of compounds of the present invention on infarct volume in an animal model of diabetes, db/db mice were subjected to ischemic stroke. Eight week-old male db/db mice were subjected to permanent occlusion of the MCA as described above. […] Changes in infarct volumes were determined as described above.

[3] = system: Wistar rats, transient MCA occlusion; test: Grip strength test in rat tMCAO; conditions: 60 mg/kg p.o. at 1.5 and 24 hours after reperfusion then 30 mg/kg every other day, days 7, 14, 21, and 28, vs non-treated control, FIG. 5
Description: (§1) Rats subjected to cerebral ischemia following transient MCA occlusion have deficits in sensorimotor and neuromuscular function which can be assessed using various behavioral tests. (See, e.g., Aronowski et al. J Cereb Blood Flow Metab (1996) 16:705-713; and Colbourne et al. J Cereb Blood Flow Metab (2000) 20:1702-1708.) The effect of compounds of the present invention on various functional impairments associated with stroke was examined using an animal model of ischemic stroke. In this series of experiments, male Wistar rats (300 g) underwent behavioral testing after transient MCA occlusion. One day prior to MCAO surgery, the rats were trained to the grip strength meter and subjected to tactile adhesion testing. Following their training, rats were subjected to transient occlusion of the MCA in the same manner described in Example 10 above. Compound F (60 mg/kg, p.o.) was administered by oral gavage at 1.5 hours and 24 hours after reperfusion and then every other day (with a dose of 30 mk/kg, p.o.) for 28 days. […]
Grip strength was used to assess neuromuscular function. Rat grip strength was determined using a standard rodent grip strength meter (Columbus Instruments, Columbus Ohio). […] Grip strength was assessed with a gentle consistent pull in the caudal direction. The digital reading on the meter was recorded and the mean of three trials reported. […]

[4] = system: Wistar rats, transient MCA occlusion; test: Tactile adhesion test in rat tMCAO; conditions: 60 mg/kg p.o. at 1.5 and 24 hours after reperfusion then 30 mg/kg every other day, day 7, vs non-treated control, FIG. 4
Description: as §1
A tactile adhesion test was used to measure sensorimotor deficits and function. […] The latency (i.e. time required for the animal to remove each stimulus from the forelimbs) was recorded for ipsilateral (right) and contralateral (left) forelimbs separately. Three trials separated by 5 minutes were carried out for each rat and mean latency values in seconds (sec) were recorded.

[5] = p.o. 6 mg/kg at reperfusion, 48 hours after MCA occlusion
[6] = 1 Dose 60 mg/kg p.o. at reperfusion
[7] = 2 Doses 60 mg/kg p.o., at reperfusion and 24 hours later
[8] = p.o. 60 mg/kg at reperfusion, 48 hours after MCA occlusion

Row | SMILES | Percent Reduction in Edema [1, 5] [%] | Percent Reduction in Infarct Volume [1, 5] [%] | Percent Reduction in Edema [1, 6] [%] | Percent Reduction in Infarct Volume [1, 6] [%] | Percent Reduction in Edema [1, 7] [%] | Percent Reduction in Infarct Volume [1, 7] [%] | Percent Reduction in Edema [1, 8] [%] | Percent Reduction in Infarct Volume [1, 8] [%] | reduction in infarct volume [2] [%] | grip strength [3] | latency in the tactile adhesion test [4]
1 | N#Cc1nc(C(=O)NCC(=O)O)c(O)c2c(Oc3ccc(F)cc3)cccc12 [Compound AS, {[1-Cyano-5-(4-fluoro-phenoxy)-4-hydroxy-isoquinoline-3-carbonyl]-amino}-acetic acid] | 32 | 58 |  |  |  |  |  |  |  |  | 
2 | COc1ccc(Oc2ccc3c(O)c(C(=O)NCC(=O)O)ncc3c2)cc1 [Compound F, {[4-Hydroxy-7-(4-methoxy-phenoxy)-isoquinoline-3-carbonyl]-amino}-acetic acid] |  |  | 28 | 42 | 39 | 70 | 39 | 70 | 52 | significantly improved | significantly improved
3 | Cc1cccc(C)c1Oc1ccc2c(C#N)nc(C(=O)NCC(=O)O)c(O)c2c1 [Compound AL, {[1-Cyano-6-(2,6-dimethyl-phenoxy)-4-hydroxy-isoquinoline-3-carbonyl]-amino}-acetic acid] | 12 | 51 |  |  |  |  |  |  |  |  | 
